Test results as given in patent US8802384B2, “Method or system using biomarkers for the monitoring of a treatment” (priority 2009, dated 2014).

Assays:
[1] = test system: HUVEC cells; test: HUVEC cells experiment: phospho-tyrosine level after VEGF, flow cytometry; format: cell-based, Human; conditions: exposure 3 h, 20 ng/ml VEGF 5 min; A1 and AG1478 1 and 5 μM, 5FU 1 and 5 mM; FIG. 1
Method: FIG. 1: Effect of different compounds on the phospho-tyrosine level of HUVEC cells treated with VEGF. On the abscissa: 1 is the IgG control, untreated with VEGF and unexposed to an active ingredient; 2 is the control untreated with VEGF and unexposed to an active ingredient; 3 is the control treated with VEGF but unexposed to an active ingredient; 4 is treated with VEGF and exposed to 1 μM of compound A1; 5 is treated with VEGF and exposed to 5 μM of compound A1; 6 is treated with VEGF and exposed to 1 μM of compound AG1478; 7 is treated with VEGF and exposed to 5 μM of compound AG 1478; 8 is treated with VEGF and exposed to 1 mM of compound 5FU; 9 is treated with VEGF and exposed to 5 mM of compound 5FU. HUVEC cells were exposed to compound A1 (1 μM and 5 μM), to the EGFR inhibitor AG1478 (1 μM and 5 μM) and to 5FU (5-fluorouracile, 1 mM and 5 mM) for 3 h and 20 ng/ml of VEGF were added for 5 min before cell collection. Collected cells were washed twice by PBS and centrifugation (300 g, 5 min) in 50 μL of staining buffer. After removal of the supernatant by aspiration, cell pellets were lysed in 250 μL of fixation/permeabilization solution and kept for 20 min on ice. The PY-100 Alexa 488 antibody and phosphatase inhibitor were added. […] The data was obtained from Cell Quest software (BD) and analyzed by WinMDI 2.9 (free software).

[2] = test system: VEGFR2^+pY^+ cells in murine peripheral blood; test: murine blood samples in vivo study (HepG2-inoculated mice), flow cytometry; conditions: 50 or 100 mg/kg p.o. for 14 days
Method: Mice, inoculated HepG2 cells, were randomized for three groups by tumor size and treated with vehicle (control), compound A1 (50 mg/kg, p.o.) or compound A1 (100 mg/kg, p.o.) for 14 days. Mice were sacrificed and whole murine blood samples were collected by aspiration from abdominal aorta or heart. The blood was hemolyzed by an hemolytic agent at room temperature for 10 min. After centrifugation (500 g, 5 min), the cells were washed by 1 mL of staining buffer. The cells were then incubated with 100 μL of staining buffer and 5 μL of VEGFR2-PE antibody for 15 min in the dark. Then, the cells were washed and incubated in 500 μL of Fixation/Permeabilization solution for 20 min and washed by Perm/Wash buffer twice. Then, a mixture of antibodies (PY-100, CD45-PerCP-Cy5.5, 5 μL of each) and phosphatase inhibitor were added and incubated for 30 min in the dark. The cells were washed and analyzed by flow cytometry (FACS Calibur, BD). The data was obtained from Cell Quest software (BD) and analyzed by WinMDI 2.9 (free software).

[3] = test system: CD34^+CD45^dim peripheral blood cells; test: Phase I clinical study: CD133/CD117 subpopulations of CD34^+CD45^dim peripheral blood cells, flow cytometry; format: in vivo, human
Method: Whole blood was collected on pre-treatment (day 1), and on day 2, day 8 and day 29 after treatment. The subpopulation of CD34^+CD45^dim peripheral blood cells identified from whole blood was further identified by cell surface markers of CD133 and CD117 using flow cytometry. Whole blood (800 μL) was supplemented with 4.5 mL of 0.2% BSA-PBS and centrifuged for 5 min (1500 rpm). After the removal of the supernatant by aspiration, 4.5 mL of 0.2% BSA-PBS was added and centrifuged. The cell pellet was mixed with 50 μL of human gamma-globulin. Antibodies (CD34-FITC, CD117-PE, CD45-PerCP and CD133-APC) were added and kept for 45 min at 4 C. An hemolytic agent (4.5 mL) was added and incubated for 10 min. After centrifugation (1500 rpm, 5 min), the supernatant was washed twice. Then, 0.2% BSA-PBS (4.5 mL) was added, and the supernatant was removed by centrifugation (1500 rpm, 5 min). The cell pellet was filled up to 800 μL with BSA-PBS and analyzed by flow cytometry. The percentage (quadrants) of CD34^+CD45^dimCD133+/−CD117+/− cells were analyzed.

[4] = responders, not significant, FIG. 5A

Structure (SMILES): CCS(=O)(=O)O.COC(=O)c1ccc2c(c1)NC(=O)/C2=C(\Nc1ccc(N(C)C(=O)CN2CCN(C)CC2)cc1)c1ccccc1 [compound A1, 3-Z-[1-(4-(N-((4-methyl-piperazin-1-yl)-methylcarbonyl)-N-methyl-amino)-anilino)-1-phenyl-methylene]-6-methoxycarbonyl-2-indolinone-monoethanesulphonate]
- phospho-tyrosine levels of HUVEC cells [1]: suppressed
- number of VEGFR2^+CD45^dimpY^+ cells ([2]; FIG. 2): seems to decrease
- VEGFR2^+pY^+ cells in murine peripheral blood ([2]; FIG. 3): suppressed
- CD34^+CD45^dimCD133^+CD117^+ cells in responders (stable disease) compared to non-responders ([3]; after treatment, RES n=12, PD n=4, FIG. 5B): tended to decrease
- percentage of CD34^+CD45^dimCD133^+CD117^+ cells ([3]; patients with advanced solid tumors, day 29 compared with pre-treatment, p<0.001, FIG. 4A): significantly increased
- percentage of CD34^+CD45^dimCD133^−CD117^+ cells ([3]; patients with advanced solid tumors, day 29 compared with pre-treatment, p<0.01, FIG. 4A): decreased
- CD34^+CD45^dimCD133^+ cells ([3]; patients, day 29, FIG. 4B): significantly increased
- CD34^+CD45^dimCD117^+ cells ([3]; patients, day Band day 29, FIG. 4C): significantly decreased
- CD34^+CD45^dimCD117^+ cells in responders (stable disease) [3, 4]: tended to decrease
- CD34^+CD45^dimCD133^+ cells in responders (stable disease) [3, 4]: tended to decrease
